Earlier results as cited in article PMC3534868 (Pharmaceutical biology, 2011).
Like-named read-outs stand apart in the source and are kept apart here.

Tests used:
[1] = test system: KB (human oral epidermoid carcinoma); settings: KB cells; for KB IC50: ref Zhang et al., 2004
[2] = test system: malaria parasite (chloroquine-sensitive and chloroquine-resistant strains); settings: for in vitro activities against the malaria parasites: 2005
Col-2 = Col-2 cells; ref Zhang et al., 2004
LNCaP (prostate) = settings: LNCaP cells; ref Zhang et al., 2004
LU-1 (lung) = settings: LU-1 cells; ref Zhang et al., 2004
HUVEC = HUVEC cells; ref Zhang et al., 2004
hTERT = hTERT cells; ref Zhang et al., 2004

Question: With epi-Methoxy-naucleaorine [SLA7018-K002] as the molecule, how does the “KB ED50” value ([1]; ref He et al., 2005) read?
Answer: >20 µg/mL

Question: And the “D6 IC50” value (P. falciparum D6; ref He et al., 2005)?
Answer: 6.535 ± 0.151 µg/mL

Question: What about the “W2 IC50” value (P. falciparum W2; ref He et al., 2005) of the same molecule?
Answer: 6.979 ± 0.008 µg/mL

Question: What about the “in vitro activities against the malaria parasites” value ([2]; ref He et al.) of the same molecule?
Answer: showed in vitro activities

Question: For `COc1cc(OCC=CC#Cc2ccc(O)cc2)ccc1O` [SLA7037-K004, 3′-Methoxy-asparenydiol], which “KB IC50” value [1] is on record?
Answer: 12.0 µg/mL

Question: And the “Col-2 IC50” value (Col-2)?
Answer: >20 µg/mL

Question: And the “LNCaP IC50” value (LNCaP (prostate))?
Answer: >20 µg/mL

Question: And the “LU-1 IC50” value (LU-1 (lung))?
Answer: 19.7 µg/mL

Question: And the “HUVEC IC50” value (HUVEC)?
Answer: >20 µg/mL

Question: What about the “hTERT IC50” value (hTERT) of the same molecule?
Answer: 0.3 µg/mL

Question: Which “KB ED50” value ([1]; ref Libman et al., 2008) does the source give for Gongroneside A [SLA7530-K001] here?
Answer: >20 µg/mL

Question: And the “D6 IC50” value (P. falciparum D6; ref Libman et al., 2008)?
Answer: 2.33 µg/mL

Question: What about the “W2 IC50” value (P. falciparum W2; ref Libman et al., 2008) of the same molecule?
Answer: 2.02 µg/mL

Question: And the “in vitro antimalarial activity” value ([2]; both strains of the malaria parasites, ref Libman et al., 2008)?
Answer: in vitro-active

Question: Which “KB IC50” value [1] does the source give for “3″-Hydroxy-4″-methoxy-4″-dehyroxy-nyasol [SLA7037-K007]” here?
Answer: 9.0 µg/mL

Question: And the “Col-2 IC50” value (Col-2)?
Answer: 11.7 µg/mL

Question: What about the “LNCaP IC50” value (LNCaP (prostate)) of the same molecule?
Answer: 11.6 µg/mL

Question: What about the “LU-1 IC50” value (LU-1 (lung)) of the same molecule?
Answer: 7.2 µg/mL

Question: And the “HUVEC IC50” value (HUVEC)?
Answer: 16.4 µg/mL

Question: What about the “hTERT IC50” value (hTERT) of the same molecule?
Answer: 0.2 µg/mL

Question: Which “KB IC50” value [1] does the source give for `C[C@@H]1CC[C@@]2(OC1)O[C@H]1C[C@H]3[C@@H]4CCC5=CC(=O)CC[C@]5(C)[C@H]4C[C@@H](O)[C@]3(C)[C@@]1(O)[C@@H]2C` [SLA7037-K001, Asparacosin A] here?
Answer: 10.7 µg/mL

Question: What about the “Col-2 IC50” value (Col-2) of the same molecule?
Answer: >20 µg/mL

Question: And the “LNCaP IC50” value (LNCaP (prostate))?
Answer: >20 µg/mL

Question: And the “LU-1 IC50” value (LU-1 (lung))?
Answer: >20 µg/mL

Question: What about the “HUVEC IC50” value (HUVEC) of the same molecule?
Answer: >20 µg/mL

Question: And the “hTERT IC50” value (hTERT)?
Answer: >20 µg/mL

Question: With `C[C@H]1[C@H](C)CC[C@]2(C(=O)O)CC[C@]3(C)C(=CC[C@@H]4[C@@]5(C)CC[C@@H](O)[C@@](C)(CO)[C@@H]5CC[C@]43C)[C@H]12` [SLA7018-K008, 3α,23-Dihydroxy-urs-12-en-28-oic acid] as the molecule, how does the “KB ED50” value ([1]; ref He et al., 2005) read?
Answer: >20 µg/mL

Question: What about the “D6 IC50” value (P. falciparum D6; ref He et al., 2005) of the same molecule?
Answer: 4.567 ± 0.702 µg/mL

Question: What about the “W2 IC50” value (P. falciparum W2; ref He et al., 2005) of the same molecule?
Answer: 6.006 ± 2.581 µg/mL

Question: With `C=C(C)[C@@H]1CC[C@]2(C(=O)O)CC[C@]3(C)[C@H](CC[C@@H]4[C@@]5(C)CC[C@H](OC(=O)/C=C/c6ccc(OC(C)=O)c(OC(C)=O)c6)C(C)(C)[C@@H]5CC[C@]43C)[C@@H]12` [SLA7062-K001b, Betulinic acid 3β-bisacetylcaffeate] as the molecule, how does the “KB ED50” value ([1]; ref Ma et al., 2008) read?
Answer: 2.07 µg/mL

Question: And the “D6 IC50” value (P. falciparum D6; ref Ma et al., 2008)?
Answer: 0.48 µg/mL

Question: And the “W2 IC50” value (P. falciparum W2; ref Ma et al., 2008)?
Answer: 0.443 µg/mL

Question: Which “KB IC50” value [1] does the source give for `C[C@H]1CC[C@@]2(OC1)O[C@H]1C[C@H]3[C@@H]4CC[C@@H]5C[C@@H](O[C@@H]6O[C@H](CO[C@@H]7OC[C@H](O)[C@H](O)[C@H]7O)[C@@H](O[C@@H]7OC[C@H](O)[C@H](O)[C@H]7O)[C@H](O)[C@H]6O[C@@H]6O[C@H](CO)[C@@H](O)[C@H](O)[C@H]6O)CC[C@]5(C)[C@H]4CC[C@]3(C)[C@H]1[C@@H]2C` [SLA7037-K003, Asparacoside] here?
Answer: 4.8 µg/mL

Question: And the “Col-2 IC50” value (Col-2)?
Answer: 5.4 µg/mL

Question: And the “LNCaP IC50” value (LNCaP (prostate))?
Answer: 10.1 µg/mL

Question: What about the “LU-1 IC50” value (LU-1 (lung)) of the same molecule?
Answer: 4.2 µg/mL

Question: And the “HUVEC IC50” value (HUVEC)?
Answer: 4.1 µg/mL

Question: And the “hTERT IC50” value (hTERT)?
Answer: 4.3 µg/mL

Question: What does the source list for `COc1cc([C@H](O[C@@H]2O[C@H](CO)[C@@H](O)[C@H](O)[C@H]2O)[C@H](CO)Oc2c(OC)cc(CCCO)cc2OC)ccc1O` [SLA7006-K008, Rourinoside]?
Answer: KB ED50 ([1]; ref He et al., 2006): >20 µg/mL; D6 IC50 (P. falciparum D6; ref He et al., 2006): 2.1 µg/mL; W2 IC50 (P. falciparum W2; ref He et al., 2006): 1.2 µg/mL; in vitro antimalarial activity ([2]; ref He et al., 2006): in vitro-active

Question: For Naucleaorine [SLA7018-K006], which “KB ED50” value ([1]; ref He et al., 2005) is on record?
Answer: 20 µg/mL

Question: And the “D6 IC50” value (P. falciparum D6; ref He et al., 2005)?
Answer: 3.61 ± 0.595 µg/mL

Question: And the “W2 IC50” value (P. falciparum W2; ref He et al., 2005)?
Answer: 4.192 ± 0.008 µg/mL

Question: And the “in vitro activities against the malaria parasites” value ([2]; ref He et al.)?
Answer: showed in vitro activities

Question: Which “KB ED50” value ([1]; ref Ma et al., 2008) does the source give for `C=C(C)[C@@H]1CC[C@]2(C(=O)O)CC[C@]3(C)[C@H](CC[C@@H]4[C@@]5(C)CC[C@H](O)C(C)(C)[C@@H]5CC[C@]43C)[C@@H]12` [SLA7062-K001a, Betulinic acid] here?
Answer: >40 µg/mL

Question: What about the “D6 IC50” value (P. falciparum D6; ref Ma et al., 2008) of the same molecule?
Answer: 3.696 µg/mL

Question: And the “W2 IC50” value (P. falciparum W2; ref Ma et al., 2008)?
Answer: 3.776 µg/mL

Question: Which “KB ED50” value ([1]; ref Ma et al., 2008) does the source give for Pinoresinol [SLA7062-K004] here?
Answer: >40 µg/mL

Question: And the “D6 IC50” value (P. falciparum D6; ref Ma et al., 2008)?
Answer: 1.361 µg/mL

Question: What about the “W2 IC50” value (P. falciparum W2; ref Ma et al., 2008) of the same molecule?
Answer: 3.15 µg/mL

Question: What does the source list for `CC1(C)CC[C@]2(C(=O)O)CC[C@]3(C)C(=CC[C@@H]4[C@@]5(C)CC[C@H](O)C(C)(C)[C@@H]5CC[C@]43C)[C@@H]2C1` [SLA7018-K003, Oleanolic acid]?
Answer: KB ED50 ([1]; ref He et al., 2005): 21 µg/mL; D6 IC50 (P. falciparum D6; ref He et al., 2005): 2.116 ± 0.308 µg/mL; W2 IC50 (P. falciparum W2; ref He et al., 2005): 2.335 ± 0.013 µg/mL

Question: Which “KB ED50” value ([1]; ref He et al., 2006) does the source give for Rouremin [SLA7006-K005] here?
Answer: >20 µg/mL

Question: And the “D6 IC50” value (P. falciparum D6; ref He et al., 2006)?
Answer: 4 µg/mL

Question: What about the “W2 IC50” value (P. falciparum W2; ref He et al., 2006) of the same molecule?
Answer: 3.5 µg/mL

Question: What about the “in vitro antimalarial activity” value ([2]; ref He et al., 2006) of the same molecule?
Answer: in vitro-active

Question: With `C=CC(/C=C\c1ccc(O)cc1)c1ccc(O)c(OC)c1` (stereo not drawn) [SLA7037-K006, 3″-Methoxy-nyasol] as the molecule, how does the “KB IC50” value [1] read?
Answer: 9.0 µg/mL

Question: And the “Col-2 IC50” value (Col-2)?
Answer: 6.3 µg/mL

Question: What about the “LNCaP IC50” value (LNCaP (prostate)) of the same molecule?
Answer: 6.6 µg/mL

Question: And the “LU-1 IC50” value (LU-1 (lung))?
Answer: 4.5 µg/mL

Question: What about the “HUVEC IC50” value (HUVEC) of the same molecule?
Answer: 6.7 µg/mL

Question: And the “hTERT IC50” value (hTERT)?
Answer: 1.2 µg/mL

Question: With `Oc1ccc(C#C/C=C/COc2ccc(O)cc2)cc1` [SLA7037-K010, Asparenydiol] as the molecule, how does the “KB IC50” value [1] read?
Answer: 2.4 µg/mL

Question: What about the “Col-2 IC50” value (Col-2) of the same molecule?
Answer: >20 µg/mL

Question: And the “LNCaP IC50” value (LNCaP (prostate))?
Answer: >20 µg/mL

Question: What about the “LU-1 IC50” value (LU-1 (lung)) of the same molecule?
Answer: 19.8 µg/mL

Question: What about the “HUVEC IC50” value (HUVEC) of the same molecule?
Answer: >20 µg/mL

Question: And the “hTERT IC50” value (hTERT)?
Answer: 0.2 µg/mL

Question: For `C=C(C)[C@@H]1CC[C@]2(C(=O)O)CC[C@]3(C)[C@H](CC[C@@H]4[C@@]5(C)CC[C@H](OC(=O)/C=C/c6ccc(O)c(O)c6)C(C)(C)[C@@H]5CC[C@]43C)[C@@H]12` [SLA7062-K001, Betulinic acid 3β-caffeate], which “KB ED50” value ([1]; ref Ma et al., 2008) is on record?
Answer: 2.5 µg/mL

Question: What about the “D6 IC50” value (P. falciparum D6; ref Ma et al., 2008) of the same molecule?
Answer: 0.87 µg/mL

Question: And the “W2 IC50” value (P. falciparum W2; ref Ma et al., 2008)?
Answer: 0.607 µg/mL

Question: What about the “in vitro antimalarial activity” value ([2]; chloroquine-sensitive and chloroquine-resistant strains, ref Ma et al., 2008) of the same molecule?
Answer: in vitro-active
